The source made the active and inactive calls.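 How the source made its calls: active means a fitted half-maximal concentration EC50 for the rise in nuclear signal no higher than ten times the top dose tested; inconclusive means flat fit with activity between 30% and 70%, or unusable fit; inactive means EC50 beyond ten times the top dose.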
The compounds below were run against Hypoxia-inducible factor 1-alpha (Homo sapiens) (UniProt Q16665) (assay: HIF pathway activation, GFP-HIF1alpha translocation – imaging, fluorescence, U2OS GFP-HIF1alpha, confirmation (AID 434951)). Conditions: U2OS GFP-HIF1alpha nuclear intensity, high-content imaging.
Hypoxia-inducible factor 1-alpha (Homo sapiens), sequence (Q16665 whole entry, looked up): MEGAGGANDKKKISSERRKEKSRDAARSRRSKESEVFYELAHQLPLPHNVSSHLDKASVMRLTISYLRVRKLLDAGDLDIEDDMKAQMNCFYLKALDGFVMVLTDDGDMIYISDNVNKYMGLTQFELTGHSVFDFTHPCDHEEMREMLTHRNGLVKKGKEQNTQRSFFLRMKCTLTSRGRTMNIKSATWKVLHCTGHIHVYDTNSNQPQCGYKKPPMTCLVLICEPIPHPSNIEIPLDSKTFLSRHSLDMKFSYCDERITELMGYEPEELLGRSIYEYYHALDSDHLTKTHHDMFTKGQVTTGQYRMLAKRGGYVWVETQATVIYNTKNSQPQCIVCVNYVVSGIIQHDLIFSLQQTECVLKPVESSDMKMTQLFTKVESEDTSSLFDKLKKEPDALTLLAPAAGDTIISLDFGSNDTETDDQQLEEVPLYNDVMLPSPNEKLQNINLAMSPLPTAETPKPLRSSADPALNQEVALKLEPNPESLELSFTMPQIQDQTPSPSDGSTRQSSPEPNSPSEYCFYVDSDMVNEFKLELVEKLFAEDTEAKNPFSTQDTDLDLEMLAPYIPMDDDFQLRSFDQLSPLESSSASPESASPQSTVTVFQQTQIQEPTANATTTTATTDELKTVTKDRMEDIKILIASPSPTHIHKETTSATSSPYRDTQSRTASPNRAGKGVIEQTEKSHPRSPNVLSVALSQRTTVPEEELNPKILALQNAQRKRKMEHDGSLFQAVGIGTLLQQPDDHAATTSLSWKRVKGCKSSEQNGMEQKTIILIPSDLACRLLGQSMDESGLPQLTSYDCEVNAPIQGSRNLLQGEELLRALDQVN

SMILES	EC50
O=C(NC1CCCC1)c1cc(-c2cccs2)on1	7.26 µM
CS(=O)(=O)c1ccc2nc(NC(=O)C3CC(=O)N(c4ccc(F)cc4)C3)sc2c1 (stereo not given)	> 35 µM (inactive)
O=C(NCc1cccs1)C1CC(=O)N(C2CCCC2)C1 (stereo not given)	> 35 µM (inactive)
Cn1c(=O)cc(C(=O)N/N=C/c2ccc(F)cc2)[nH]c1=O	> 35 µM (inactive)
Cc1ccc(C)c(CNS(=O)(=O)c2ccc3c(c2)C(C)(C)C(=O)N3C)c1	> 35 µM (inactive)
CC(C)[C@H](NC(=O)c1ccccc1Cl)C(=O)Nc1nc(-c2ccccn2)cs1	6.64 µM
NC(=O)c1sc2nccc(Nc3ccccc3)c2c1N	> 35 µM (inactive)
S=c1[nH]nc(-c2ccco2)n1/N=C/c1cccs1	> 35 µM (inactive)
O=C(N/N=C(\c1ccccc1)c1ccccn1)c1ccccc1Cl	11.2 µM
CCOC(=O)C(NC(C)=O)(N1CCOCC1)C(F)(F)F (stereo not given)	> 35 µM (inactive)
CCn1c(N2CCC(Cc3ccccc3)CC2)nc2c1c(=O)[nH]c(=O)n2C	> 35 µM (inactive)
O=C(NCc1ccccc1)C(=O)c1cn(CC(=O)N2CCOCC2)c2ccccc12	> 35 µM (inactive)
CSc1ccc(/C=N/Nc2ccc(Cl)c(C(=O)O)c2)cc1	> 35 µM (inactive)
O=C(N/N=C/c1ccccn1)c1ccc(Br)cc1	12.2 µM
CCOC(=O)CNC(=O)CSc1nnc(Cn2cnc3ccccc32)n1C	> 35 µM (inactive)
Cn1c(CC(=O)Nc2ccccc2)cc2ccccc21	> 35 µM (inactive)
CCOc1ccc(NC(=O)CC2C(=O)Nc3ccccc3N2C(=O)c2ccccc2)cc1 (stereo not given)	> 35 µM (inactive)
Cn1ncc(Br)c1NC(=O)CSc1ccc(Cl)cc1	> 35 µM (inactive)
Cc1c(C(=O)N2CCCCC2)c(S(=O)(=O)NCCc2ccc(Cl)cc2)c(C)n1C	> 35 µM (inactive)
CCN(CCCCCN(C)C)Cc1cc2ccccc2o1	> 35 µM (inactive)
Cc1ccc2c(c1)C1NC(=S)NC(C)(O2)C1C(=O)Nc1ccc(Cl)cc1 (stereo not given)	> 35 µM (inactive)
Nc1ccc(C(=O)N/N=C\c2cc(N=Nc3cccc4ccccc34)ccc2O)cc1	35.8 µM
COc1cc2ccccc2cc1C(=O)Nc1ccc(C)cc1	> 35 µM (inactive)
Cc1nc(NCCc2ccccc2)c(C#N)c(C)c1[N+](=O)[O-]	> 35 µM (inactive)
COc1cc(C(=O)Oc2ccccc2/C=N/NC(=O)c2ccc(C)cc2)cc(OC)c1OC	13.8 µM

SMILES	EC50
CN(C)c1ccc(N=Nc2ccc(S(N)(=O)=O)cc2)cc1	> 35 µM (inactive)
Cc1cc(=O)oc2cc(OCC(=O)N3CCN(c4ccc(F)cc4)CC3)ccc12	> 35 µM (inactive)
Oc1c(C(Nc2cccc(C(F)(F)F)c2)c2ccncc2)ccc2cccnc12 (stereo not given)	6.49 µM
COc1ccc(N2CCN(C(=O)COc3ccc4c(C)c(C)c(=O)oc4c3C)CC2)cc1	> 35 µM (inactive)
Cc1ccc(NC(=S)N/C(=N/S(=O)(=O)c2ccccc2)c2ccccc2)cc1	> 35 µM (inactive)
NS(=O)(=O)c1ccc(CNC(=O)c2csc3c2CCCC3)cc1	> 35 µM (inactive)
COc1ccc(N2CCN(c3ccc(N4C(=O)CC(C)C4=O)cc3[N+](=O)[O-])CC2)cc1 (stereo not given)	> 35 µM (inactive)
COc1ccc(NC(=O)C(=O)NNC(=O)c2ccc(Cl)cc2Cl)cc1	> 35 µM (inactive)
CCOc1ccc(C(=O)NC(=S)Nc2cccc(NC(=O)c3ccco3)c2)cc1[N+](=O)[O-]	> 35 µM (inactive)
CC(=O)c1ccc(N(C(=O)c2csnn2)C(C(=O)NC(C)(C)C)c2cccs2)cc1 (stereo not given)	> 35 µM (inactive)
CC(C)[C@H](NC(=O)c1ccco1)C(=O)OCc1cc(=O)n2c(n1)sc1ccccc12	> 35 µM (inactive)
CN(C)S(=O)(=O)c1cccc(NC(=S)N/N=C/c2cc(Br)ccc2O)c1	12.7 µM
O=C(C1=NN[C@@H]2C(=O)N(c3cccc(C(F)(F)F)c3)C(=O)[C@H]12)C(c1ccccc1)c1ccccc1	> 35 µM (inactive)
Cc1[nH]n(-c2ccccc2)c(=O)c1N=Nc1ccc2c(c1)OCCO2	> 35 µM (inactive)
COc1ccc(/C=N/Nc2ncnc3sc4c(c23)CCCC4)cc1OC	> 35 µM (inactive)
CC1(C)Cc2c(C#N)c(SCCC#N)nc(N3CCOCC3)c2CO1	> 35 µM (inactive)
CCC1CCc2sc(C(=O)O)cc2C1 (stereo not given)	> 35 µM (inactive)
Oc1c(C(Nc2ccccn2)c2ccccn2)ccc2cccnc12 (stereo not given)	3.98 µM
CN(C(=O)COC(=O)c1ccc(F)c(S(=O)(=O)N2CCOCC2)c1)C1CCS(=O)(=O)C1 (stereo not given)	> 35 µM (inactive)
COc1cc(SC)ccc1C(=O)NCCc1ccccc1	> 35 µM (inactive)
O=C(Cn1c(SCC(=O)N2CCCc3ccccc32)nc2ccccc21)N1CCCC1	> 35 µM (inactive)
Cn1cc(CC(=O)N2CCN(c3ccc(Cl)cc3)CC2)c2ccccc21	> 35 µM (inactive)
CCCCOC(=O)c1ccc(NC(=O)C(=O)NCc2cccnc2)cc1	> 35 µM (inactive)
C[C@@H]1O[C@@H](OC[C@H]2O[C@@H](Oc3c(-c4ccc(O)cc4)oc4cc(O)cc(O)c4c3=O)[C@H](O)[C@@H](O)[C@@H]2O)[C@H](O)[C@H](O)[C@H]1O	> 35 µM (inactive)
CCCCC(=O)N1CCN(c2nc3ccc(F)cc3s2)CC1	> 35 µM (inactive)

SMILES	EC50
COc1ccc(C(=O)C2CCCN(C(=O)C3CCOCC3)C2)cc1OC (stereo not given)	> 35 µM (inactive)
Cc1occc1C(=O)NC1CCCCCC1	> 35 µM (inactive)
CCCCCCC1CCC(c2nc(-c3ccncc3)no2)CC1 (stereo not given)	> 35 µM (inactive)
CN1CCC2(CC1)N=C(c1ccc(F)cc1)C(=S)N2C(=O)c1ccc(C(C)(C)C)cc1	> 35 µM (inactive)
COc1ccccc1NC(=O)C1CCN(C(=O)c2ccc(C(C)(C)C)cc2)CC1	> 35 µM (inactive)
CCCCC(=O)NC(c1ccccc1Cl)c1ccc2cccnc2c1O (stereo not given)	3.16 µM
COC(=O)c1ccc(C(C(=O)NCc2ccccc2)N(Cc2ccco2)C(=O)c2cnccn2)cc1 (stereo not given)	> 35 µM (inactive)
Cc1ccc(-c2csc3nc(SCC(=O)N(C)C)n(Cc4ccccc4)c(=O)c23)cc1	5.26 µM
O=c1oc2cc([N+](=O)[O-])ccc2nc1/C=C(\O)c1cccc(Br)c1	> 35 µM (inactive)
COc1nccc(C(F)(F)F)c1C(=O)NC(=O)Nc1ccccc1	> 35 µM (inactive)
c1ccc(-c2nnc(-c3ccccn3)nc2NC2CCCCC2)cc1	6.78 µM
COc1ccc(NC(=O)C2CCN(S(=O)(=O)c3ccc4c(c3)CC(C)N4C(C)=O)CC2)cc1OC (stereo not given)	> 35 µM (inactive)
O=C(NCC(=O)N(Cc1ccco1)C(C(=O)NC1CCCCC1)c1cccnc1)c1cccs1 (stereo not given)	> 35 µM (inactive)
S=C(Nc1ccc2cn[nH]c2c1)Nc1ccccc1Cl	> 35 µM (inactive)
O=C(Cn1c(Cc2ccccc2)nc2ccccc21)NCc1ccc2c(c1)OCO2	> 35 µM (inactive)
CC1CN(S(=O)(=O)c2cccc(C(=O)N(CCc3ccccc3)Cc3ccccc3)c2)CC(C)O1 (stereo not given)	> 35 µM (inactive)
C=CCOc1ccc(/C=C2\SC(N)=NC2=O)cc1OC	> 35 µM (inactive)
CC(C)c1ccc2oc(=O)cc(CN3CCOCC3)c2c1	> 35 µM (inactive)
COCc1c(C(=O)N/N=C(\C)c2ccc(Cl)s2)nnn1-c1nonc1N	> 35 µM (inactive)
Cc1cc(NC(c2cccnc2)c2ccc3cccnc3c2O)no1 (stereo not given)	23.3 µM
CSc1nc(C)cc(C)c1C#N	> 35 µM (inactive)
CC1CCN(C(=O)CS(=O)(=O)Cc2ccccc2)CC1	> 35 µM (inactive)
COc1ccccc1/C=C/C(=O)c1ccccc1	> 35 µM (inactive)
COc1ccc(NC(=O)Nc2ccc(CC(=O)O)cc2)cc1	> 35 µM (inactive)
Cc1ncc(CO)c(/C=N/Nc2ccc(C(F)(F)F)cn2)c1O	17.8 µM

SMILES	EC50
CC[n+]1c(S(=O)(=O)[O-])ccc2ccc(C)cc21	> 35 µM (inactive)
O=C(COC(=O)c1cccc(S(=O)(=O)N2CCOCC2)c1)Nc1ncc(C(F)(F)F)cc1Cl	> 35 µM (inactive)
COc1ccccc1CCNS(=O)(=O)c1cc2c3c(c1)C(C)C(=O)N3CCC2 (stereo not given)	> 35 µM (inactive)
c1ccc(CSC2=NNC(c3ccccn3)S2)cc1 (stereo not given)	18.6 µM
Cc1nc2nc3c(cn2n1)C(=O)CC(c1ccccc1)C3 (stereo not given)	> 35 µM (inactive)
N/C(=N\OC(=O)Cc1cccs1)c1ccccc1	> 35 µM (inactive)
Cc1ccc(/C=C(\C#N)c2nn(-c3ccccc3)c(N)c2C#N)cc1	> 35 µM (inactive)
CC(C)c1ccc(N(C(=O)c2snc(C(N)=O)c2N)C(C(=O)NC2CCCC2)c2ccncc2)cc1 (stereo not given)	21.4 µM
CCCCn1c(N)c(N(CC)C(=O)c2cc(OC)cc(OC)c2)c(=O)[nH]c1=O	> 35 µM (inactive)
CN(Cc1cccnc1)C(=O)c1cc(COc2ccc3ncccc3c2)on1	> 35 µM (inactive)
CCN(CC)c1ccc(/C=N/Nc2nc(C)cc(=O)[nH]2)c(O)c1	34.4 µM
O=C(NCCc1csc(-c2cccc(F)c2)n1)c1ccco1	> 35 µM (inactive)
CCc1cc(C(=O)N/N=C/c2ccc(O)cc2O)c2ccccc2n1	17.5 µM
OCCCNc1c2ccccc2nc2ccccc12	> 35 µM (inactive)
COc1ccccc1N(CC(=O)NC1CCCCC1)S(C)(=O)=O	> 35 µM (inactive)
CCN(CC)S(=O)(=O)c1ccc(N/N=C/c2cc(OC)ccc2O)nc1	4.31 µM
CCCOc1cccc(C2C(C(=O)c3ccco3)=C(O)C(=O)N2CCCn2ccnc2)c1 (stereo not given)	> 35 µM (inactive)
CCOC(=O)C1CCCN(C(=O)c2ccc3oc(CCc4ccccc4)nc3c2)C1 (stereo not given)	> 35 µM (inactive)
Cc1cc(NC(=O)c2ccccc2)n(-c2nc3ccccc3[nH]2)n1	27 µM
O=C(CNC(=O)C(c1ccccc1)c1ccccc1)N/N=C/c1ccc(O)cc1O	> 35 µM (inactive)
Cc1cc(C)c2nc(N3CCN(C(=O)c4ccco4)CC3)sc2c1	> 35 µM (inactive)
COc1ccc(/C(C)=N/NC(=O)c2cccc(S(=O)(=O)N3CCCC3)c2)c(O)c1	5.8 µM
COc1ccc(C(=O)CSc2nncn2C)cc1	> 35 µM (inactive)
COc1ccc(CNC(=O)CN(CC2CCCO2)C(=O)CNS(=O)(=O)c2ccc(C)cc2)cc1 (stereo not given)	> 35 µM (inactive)
Cc1nnc(N/N=C/c2ccccn2)[nH]c1=O	5.75 µM
